Measurements: patent US12441768B2, “Compositions and methods for treating endometriosis” (EndoMet Biosciences, Inc., priority 2018, dated 2025)
Where a SMILES comes first, the peptide text is derived from it.

Legend:
[1] = biological target: Wnt-responsive promoter (TCF/LEF); assay: Wnt-dependent luciferase reporter assay; format: cell-based, murine
How it was run: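 EC50 (uM) derived from inhibition of luminescence in Wnt3a-stimulated murine 3T3 cells expressing luciferase under a TCF/LEF promoter, with peptides added across a concentration range and vehicle as control.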

β-catenin = biological target: T1, β-catenin (Homo sapiens, UniProt P35222); assay: KD50 measurement using competitive fluorescence polarization (FP) with labelled TCF4; format: binding; settings: fluorescence polarization, β-catenin; for Kd: read-out: β-Cat FP KD
T1 sequence (P35222 1-781): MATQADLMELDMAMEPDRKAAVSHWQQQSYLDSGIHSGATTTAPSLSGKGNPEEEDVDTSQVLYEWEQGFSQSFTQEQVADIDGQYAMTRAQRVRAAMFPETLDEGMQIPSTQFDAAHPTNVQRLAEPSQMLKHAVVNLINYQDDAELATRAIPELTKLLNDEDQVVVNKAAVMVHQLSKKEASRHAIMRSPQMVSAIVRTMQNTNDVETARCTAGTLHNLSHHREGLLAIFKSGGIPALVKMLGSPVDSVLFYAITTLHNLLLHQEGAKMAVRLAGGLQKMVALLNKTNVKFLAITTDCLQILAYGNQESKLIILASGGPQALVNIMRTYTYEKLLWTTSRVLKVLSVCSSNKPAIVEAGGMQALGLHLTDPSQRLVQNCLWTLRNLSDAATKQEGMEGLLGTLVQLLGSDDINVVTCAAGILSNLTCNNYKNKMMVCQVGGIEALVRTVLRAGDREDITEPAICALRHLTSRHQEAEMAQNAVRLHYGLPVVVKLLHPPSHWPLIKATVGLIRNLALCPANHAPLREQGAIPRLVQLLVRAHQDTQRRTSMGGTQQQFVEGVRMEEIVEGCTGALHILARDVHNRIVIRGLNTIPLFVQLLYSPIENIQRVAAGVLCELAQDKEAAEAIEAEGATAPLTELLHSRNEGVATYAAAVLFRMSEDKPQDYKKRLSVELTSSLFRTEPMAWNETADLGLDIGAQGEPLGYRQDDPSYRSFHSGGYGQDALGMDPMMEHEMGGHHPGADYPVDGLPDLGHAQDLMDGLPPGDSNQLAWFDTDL
How it was run: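 Each compound competes against labelled TCF4 (5 nM) for 100 nM β-catenin at room temperature, tested over 10 nM to 30 uM. Signal: polarization at 470/520 nm excitation/emission. Three repeat experiments were performed.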

[2] = % Viability non-Wnt responsive cells

EC50 [1] [µM]	β-Cat FP Hill slope (β-catenin)	Kd (β-catenin) [µM]	SMILES	viability [2] [%]
< 7.5	0.7	1 to 10	CC[C@H](C)[C@@H]1NC(=O)[C@H](CC(C)C)NC(=O)[C@H](Cc2ccccc2)NC(=O)[C@H](Cc2c[nH]c3ccccc23)NC(=O)[C@@H](N)CCCCNC(=O)C[C@@H](C(=O)O)NC(=O)[C@H](Cc2c[nH]c3ccccc23)NC(=O)[C@H](Cc2ccccc2)NC(=O)[C@H](CS)NC1=O [compound 172] (HELM PEPTIDE1{K.W.F.L.I.C.F.W.D}$PEPTIDE1,PEPTIDE1,1:R3-9:R3$$$V2.0)	90.8
> 30	0.7		CC[C@H](C)[C@@H]1NC(=O)[C@H](CC(C)C)NC(=O)[C@H](Cc2ccccc2)NC(=O)[C@H](Cc2c[nH]c3ccccc23)NC(=O)[C@@H](N)CCCCNC(=O)CC[C@@H](C(=O)N[C@@H](Cc2c[nH]c3ccccc23)C(=O)NCC(=O)O)NC(=O)[C@H](CS)NC1=O [compound 173] (HELM PEPTIDE1{K.W.F.L.I.C.E.W.G}$PEPTIDE1,PEPTIDE1,1:R3-7:R3$$$V2.0)	107
7.5 to 15	0.7	1 to 10	CC[C@H](C)[C@@H]1NC(=O)[C@H](CC(C)C)NC(=O)[C@H](Cc2ccccc2)NC(=O)[C@H](Cc2c[nH]c3ccccc23)NC(=O)[C@@H](N)CCCCNC(=O)CNC(=O)CC[C@@H](C(=O)NCC(=O)O)NC(=O)[C@H](Cc2c[nH]c3ccccc23)NC(=O)[C@H](Cc2ccccc2)NC(=O)[C@H](CS)NC1=O [compound 174] (HELM PEPTIDE1{K.W.F.L.I.C.F.W.E.G}|CHEM1{[O=C(CN[*:2])[*:1]]}$PEPTIDE1,CHEM1,1:R3-1:R1|PEPTIDE1,CHEM1,9:R3-1:R2$$$V2.0)	102
7.5 to 15	0.7	10 to 30	CC[C@H](C)[C@@H]1NC(=O)[C@H](CC(C)C)NC(=O)[C@H](Cc2ccccc2)NC(=O)[C@H](Cc2c[nH]c3ccccc23)NC(=O)[C@@H](NC(C)=O)CC(=O)NCCCC[C@@H](C(=O)NCC(=O)O)NC(=O)[C@H](Cc2c[nH]c3ccccc23)NC(=O)[C@H](Cc2ccccc2)NC(=O)[C@H](CS)NC1=O [compound 175] (HELM PEPTIDE1{[ac].D.W.F.L.I.C.F.W.K.G}$PEPTIDE1,PEPTIDE1,2:R3-10:R3$$$V2.0)	100
7.5 to 15	0.85	10 to 30	CC[C@H](C)[C@@H]1NC(=O)[C@H](CC(C)C)NC(=O)[C@H](Cc2ccccc2)NC(=O)[C@H](Cc2c[nH]c3ccccc23)NC(=O)[C@@H](N)CC(=O)NCCCC[C@@H](C(=O)NCC(=O)O)NC(=O)[C@H](Cc2c[nH]c3ccccc23)NC(=O)[C@H](Cc2ccccc2)NC(=O)[C@H](CS)NC1=O [compound 176] (HELM PEPTIDE1{D.W.F.L.I.C.F.W.K.G}$PEPTIDE1,PEPTIDE1,1:R3-9:R3$$$V2.0)	109
7.5 to 15		> 30	CC[C@H](C)[C@@H]1NC(=O)[C@H](CC(C)C)NC(=O)[C@H](Cc2ccccc2)NC(=O)[C@H](Cc2c[nH]c3ccccc23)NC(=O)[C@H](CCSC)NC(=O)[C@@H](N)CC(=O)NCCCC[C@@H](C(=O)NCC(=O)O)NC(=O)[C@H](Cc2c[nH]c3ccccc23)NC(=O)[C@H](Cc2ccccc2)NC(=O)[C@H](CS)NC1=O [compound 177] (HELM PEPTIDE1{D.M.W.F.L.I.C.F.W.K.G}$PEPTIDE1,PEPTIDE1,1:R3-10:R3$$$V2.0)	98.6
< 7.5		> 30	CC[C@H](C)[C@@H]1NC(=O)[C@H](CC(C)C)NC(=O)[C@H](Cc2ccccc2)NC(=O)[C@H](Cc2c[nH]c3ccccc23)NC(=O)[C@@H](N)CC(=O)NCCCC[C@@H](C(=O)NCC(=O)O)NC(=O)[C@H](Cc2c[nH]c3ccccc23)NC(=O)[C@H](C)NC(=O)[C@H](CS)NC1=O [compound 178] (HELM PEPTIDE1{D.W.F.L.I.C.A.W.K.G}$PEPTIDE1,PEPTIDE1,1:R3-9:R3$$$V2.0)	91.8
< 7.5	1.01	1 to 10	CC[C@H](C)[C@@H]1NC(=O)[C@H](CC(C)C)NC(=O)[C@H](Cc2ccccc2)NC(=O)[C@H](Cc2c[nH]c3ccccc23)NC(=O)[C@@H](N)CCCCNC(=O)CC[C@@H](C(=O)O)NC(=O)[C@H](Cc2c[nH]c3ccccc23)NC(=O)[C@H](Cc2ccccc2)NC(=O)[C@H](CS)NC1=O [compound 179] (HELM PEPTIDE1{K.W.F.L.I.C.F.W.E}$PEPTIDE1,PEPTIDE1,1:R3-9:R3$$$V2.0)	90.9
< 7.5		> 30	CC[C@H](C)[C@@H]1NC(=O)[C@H](CC(C)C)NC(=O)[C@H](Cc2ccccc2)NC(=O)[C@H](Cc2c[nH]c3ccccc23)NC(=O)[C@H](CCSC)NC(=O)[C@@H](N)CCCCNC(=O)CC[C@@H](C(=O)N[C@@H](Cc2c[nH]c3ccccc23)C(=O)NCC(=O)O)NC(=O)[C@H](CS)NC1=O [compound 180] (HELM PEPTIDE1{K.M.W.F.L.I.C.E.W.G}$PEPTIDE1,PEPTIDE1,1:R3-8:R3$$$V2.0)	103
22.5 to 30	1.06	0.4 to 1	CC[C@H](C)[C@@H]1NC(=O)[C@H](CC(C)C)NC(=O)[C@H]([C@@H](C)CC)NC(=O)[C@H](Cc2c[nH]c3ccccc23)NC(=O)[C@@H](N)CCCCNC(=O)CC[C@@H](C(=O)O)NC(=O)[C@H](Cc2c[nH]c3ccccc23)NC(=O)[C@H](Cc2ccccc2)NC(=O)[C@H](CO)NC1=O [compound 182] (HELM PEPTIDE1{K.W.I.L.I.S.F.W.E}$PEPTIDE1,PEPTIDE1,1:R3-9:R3$$$V2.0)	95.3
< 7.5	0.7	1 to 10	CC[C@H](C)[C@@H]1NC(=O)[C@H](CC(C)C)NC(=O)[C@H](Cc2ccccc2)NC(=O)[C@H](Cc2c[nH]c3ccccc23)NC(=O)[C@@H](N)CCCCNC(=O)CC[C@@H](C(=O)O)NC(=O)[C@H](Cc2c[nH]c3ccccc23)NC(=O)[C@H](C)NC(=O)[C@H](CO)NC1=O [compound 183] (HELM PEPTIDE1{K.W.F.L.I.S.A.W.E}$PEPTIDE1,PEPTIDE1,1:R3-9:R3$$$V2.0)	97
< 7.5	0.7	10 to 30	CC[C@H](C)[C@@H]1NC(=O)[C@H](CC(C)C)NC(=O)[C@H]([C@@H](C)CC)NC(=O)[C@H](Cc2c[nH]c3ccccc23)NC(=O)[C@@H](N)CCCCNC(=O)CC[C@@H](C(=O)O)NC(=O)[C@H](Cc2c[nH]c3ccccc23)NC(=O)[C@H](C)NC(=O)[C@H](CO)NC1=O [compound 184] (HELM PEPTIDE1{K.W.I.L.I.S.A.W.E}$PEPTIDE1,PEPTIDE1,1:R3-9:R3$$$V2.0)	95.2
22.5 to 30	1.32	< 0.4	CC[C@H](C)[C@@H]1NC(=O)[C@H](CC(C)C)NC(=O)[C@H](Cc2ccccc2)NC(=O)[C@H](Cc2c[nH]c3ccccc23)NC(=O)[C@@H](NC(C)=O)CCCCNC(=O)CC[C@@H](C(=O)O)NC(=O)[C@H](Cc2c[nH]c3ccccc23)NC(=O)[C@H](Cc2ccccc2)NC(=O)[C@H](CS)NC1=O [compound 185] (HELM PEPTIDE1{[ac].K.W.F.L.I.C.F.W.E}$PEPTIDE1,PEPTIDE1,2:R3-10:R3$$$V2.0)	87.8
